Data as given in ChEMBL document CHEMBL4665869, “New thiazolopyrimidine as anticancer agents: Synthesis, biological evaluation, DNA binding, molecular modeling and ADMET study” (Bioorg Med Chem Lett, 2020).
In brackets after ≈: the same amount, converted by molar mass. Activity calls are given as the source filed them. The rule behind the calls is not given here.

Tests used:
DU-145 = assay: Growth inhibition of human DU-145 cells at 10 uM relative to control; type: functional; settings: read-out: GI
K562 = assay: Growth inhibition of human K562 cells at 10 uM relative to control; type: functional; settings: read-out: GI
A498 = assay: Growth inhibition of human A498 cells at 10 uM relative to control; type: functional
CCRF-CEM = assay: Growth inhibition of human CCRF-CEM cells at 10 uM relative to control; type: functional
BT-549 = assay: Growth inhibition of human BT-549 cells at 10 uM relative to control; type: functional
KM12 = assay: Growth inhibition of human KM12 cells at 10 uM relative to control; type: functional; settings: read-out: GI
786-0 = assay: Growth inhibition of human 786-0 cells at 10 uM relative to control; type: functional; settings: read-out: GI
SR = assay: Growth inhibition of human SR cells at 10 uM relative to control; type: functional
RPMI-8226 = assay: Growth inhibition of human RPMI-8226 cells at 10 uM relative to control; type: functional
SK-OV-3 = assay: Growth inhibition of human SK-OV-3 cells at 10 uM relative to control; type: functional; settings: read-out: GI
SK-MEL-2 = assay: Growth inhibition of human SK-MEL-2 cells at 10 uM relative to control; type: functional
SK-MEL-5 = assay: Growth inhibition of human SK-MEL-5 cells at 10 uM relative to control; type: functional
OVCAR-4 = assay: Growth inhibition of human OVCAR-4 cells at 10 uM relative to control; type: functional; settings: read-out: GI
[1] = test system: Panel NCI-60 (60 carcinoma cell lines); assay: Growth inhibition of human NCI60 cells; type: functional
SW-620 = assay: Growth inhibition of human SW-620 cells at 10 uM relative to control; type: functional; settings: read-out: GI
PC-3 = assay: Growth inhibition of human PC-3 cells at 10 uM relative to control; type: functional; settings: read-out: GI
HL-60(TB) = assay: Growth inhibition of human HL-60(TB) cells at 10 uM relative to control; type: functional
U-251 = assay: Growth inhibition of human U-251 cells at 10 uM relative to control; type: functional; settings: read-out: GI
MDA-MB-231 = assay: Growth inhibition of human MDA-MB-231 cells at 10 uM relative to control; type: functional; settings: read-out: GI
OVCAR-8 = assay: Growth inhibition of human OVCAR-8 cells at 10 uM relative to control; type: functional
HOP-62 = assay: Growth inhibition of human HOP-62 cells at 10 uM relative to control; type: functional; settings: read-out: GI
SNB-75 = assay: Growth inhibition of human SNB-75 cells at 10 uM relative to control; type: functional
CAKI-1 = assay: Growth inhibition of human CAKI-1 cells at 10 uM relative to control; type: functional
RXF 393 = assay: Growth inhibition of human RXF 393 cells at 10 uM relative to control; type: functional
Malme-3M = assay: Growth inhibition of human Malme-3M cells at 10 uM relative to control; type: functional
HOP-92 = assay: Growth inhibition of human HOP-92 cells at 10 uM relative to control; type: functional
Hs-578T = assay: Growth inhibition of human Hs-578T cells at 10 uM relative to control; type: functional
UACC-257 = assay: Growth inhibition of human UACC-257 cells at 10 uM relative to control; type: functional; settings: read-out: GI
SNB-19 = assay: Growth inhibition of human SNB-19 cells at 10 uM relative to control; type: functional
SK-MEL-28 = assay: Growth inhibition of human SK-MEL-28 cells at 10 uM relative to control; type: functional
MOLT-4 = assay: Growth inhibition of human MOLT-4 cells at 10 uM relative to control; type: functional
MDA-MB-468 = assay: Growth inhibition of human MDA-MB-468 cells at 10 uM relative to control; type: functional
IGROV-1 = assay: Growth inhibition of human IGROV-1 cells at 10 uM relative to control; type: functional
DNA = assay: Displacement of methyl green from DNA (unknown origin) assessed as DNA intercalation after 24 hrs by colorimetric assay; type: nucleic-acid assay
UACC-62 = assay: Growth inhibition of human UACC-62 cells at 10 uM relative to control; type: functional
SF-295 = assay: Growth inhibition of human SF-295 cells at 10 uM relative to control; type: functional
UO-31 = assay: Growth inhibition of human UO-31 cells at 10 uM relative to control; type: functional; settings: read-out: GI
TK-10 = assay: Growth inhibition of human TK-10 cells at 10 uM relative to control; type: functional; settings: read-out: GI
HT-29 = assay: Growth inhibition of human HT-29 cells at 10 uM relative to control; type: functional; settings: read-out: GI
HCT-116 = assay: Growth inhibition of human HCT-116 cells at 10 uM relative to control; type: functional; settings: read-out: GI
NCI/ADR-RES = assay: Growth inhibition of human NCI/ADR-RES cells at 10 uM relative to control; type: functional; settings: read-out: GI
SN12C = assay: Growth inhibition of human SN12C cells at 10 uM relative to control; type: functional; settings: read-out: GI
MCF7 = assay: Growth inhibition of human MCF7 cells at 10 uM relative to control; type: functional; settings: read-out: GI
M14 = assay: Growth inhibition of human M14 cells at 10 uM relative to control; type: functional
LOX IMVI = assay: Growth inhibition of human LOX IMVI cells at 10 uM relative to control; type: functional; settings: read-out: GI
NCI-H226 = assay: Growth inhibition of human NCI-H226 cells at 10 uM relative to control; type: functional
HCC 2998 = assay: Growth inhibition of human HCC 2998 cells at 10 uM relative to control; type: functional
NCI-H522 = assay: Growth inhibition of human NCI-H522 cells at 10 uM relative to control; type: functional
A549 = assay: Growth inhibition of human A549 cells at 10 uM relative to control; type: functional
NCI-H460 = assay: Growth inhibition of human NCI-H460 cells at 10 uM relative to control; type: functional; settings: read-out: GI
NCI-H322M = assay: Growth inhibition of human NCI-H322M cells at 10 uM relative to control; type: functional; settings: read-out: GI
T47D = assay: Growth inhibition of human T47D cells at 10 uM relative to control; type: functional
SF-268 = assay: Growth inhibition of human SF-268 cells at 10 uM relative to control; type: functional
NCI-H23 = assay: Growth inhibition of human NCI-H23 cells at 10 uM relative to control; type: functional; settings: read-out: GI
ACHN = assay: Growth inhibition of human ACHN cells at 10 uM relative to control; type: functional
OVCAR-5 = assay: Growth inhibition of human OVCAR-5 cells at 10 uM relative to control; type: functional
HCT-15 = assay: Growth inhibition of human HCT-15 cells at 10 uM relative to control; type: functional; settings: read-out: GI
SF-539 = assay: Growth inhibition of human SF-539 cells at 10 uM relative to control; type: functional
COLO 205 = assay: Growth inhibition of human COLO 205 cells at 10 uM relative to control; type: functional
MDA-MB-435 = assay: Growth inhibition of human MDA-MB-435 cells at 10 uM relative to control; type: functional

## COc1cccc2c1C(=O)c1c(O)c3c(c(O)c1C2=O)C[C@@](O)(C(=O)CO)C[C@@H]3O[C@H]1C[C@H](N)[C@H](O)[C@H](C)O1 [DOXORUBICIN]
DU-145
  inhibition of growth at 10 µM: 86.8%
K562
  inhibition of growth at 10 µM: 97.9%
A498
  growth inhibition (GI): Active
CCRF-CEM
  growth inhibition (GI): Active
BT-549
  growth inhibition (GI): Active
KM12
  inhibition of growth at 10 µM: 95.8%
786-0
  inhibition of growth at 10 µM: 95.5%
SR
  growth inhibition (GI): Active
RPMI-8226
  growth inhibition (GI): Active
SK-OV-3
  inhibition of growth at 10 µM: 86.2%
SK-MEL-2
  growth inhibition (GI): Active
SK-MEL-5
  growth inhibition (GI): Active
OVCAR-4
  inhibition of growth at 10 µM: 85.9%
[1]
  GI50: 150 nM
  TGI: 2480 nM
SW-620
  inhibition of growth at 10 µM: 98.1%
PC-3
  inhibition of growth at 10 µM: 98.7%
HL-60(TB)
  growth inhibition (GI): Active
U-251
  inhibition of growth at 10 µM: 90.8%
MDA-MB-231
  inhibition of growth at 10 µM: 96.2%
OVCAR-8
  growth inhibition (GI): Active
HOP-62
  inhibition of growth at 10 µM: 93.1%
SNB-75
  growth inhibition (GI): Active
CAKI-1
  growth inhibition (GI): Active
RXF 393
  growth inhibition (GI): Active
Malme-3M
  growth inhibition (GI): Active
HOP-92
  growth inhibition (GI): Active
Hs-578T
  growth inhibition (GI): Active
UACC-257
  inhibition of growth at 10 µM: 96.5%
SNB-19
  growth inhibition (GI): Active
SK-MEL-28
  growth inhibition (GI): Active
MOLT-4
  growth inhibition (GI): Active
MDA-MB-468
  growth inhibition (GI): Active
IGROV-1
  growth inhibition (GI): Active
DNA
  IC50: 31.27 µg/mL (≈ 57.5 µM)
UACC-62
  growth inhibition (GI): Active
SF-295
  growth inhibition (GI): Active
UO-31
  inhibition of growth at 10 µM: 96%
TK-10
  inhibition of growth at 10 µM: 74.6%
HT-29
  inhibition of growth at 10 µM: 95.3%
HCT-116
  inhibition of growth at 10 µM: 97.2%
NCI/ADR-RES
  inhibition of growth at 10 µM: 95.1%
SN12C
  inhibition of growth at 10 µM: 88%
MCF7
  inhibition of growth at 10 µM: 96.6%
M14
  growth inhibition (GI): Active
LOX IMVI
  inhibition of growth at 10 µM: 94.3%
NCI-H226
  growth inhibition (GI): Active
HCC 2998
  growth inhibition (GI): Active
NCI-H522
  growth inhibition (GI): Active
A549
  growth inhibition (GI): Active
NCI-H460
  inhibition of growth at 10 µM: 99.4%
NCI-H322M
  inhibition of growth at 10 µM: 86.1%
T47D
  growth inhibition (GI): Active
SF-268
  growth inhibition (GI): Active
NCI-H23
  inhibition of growth at 10 µM: 66.7%
ACHN
  growth inhibition (GI): Active
OVCAR-5
  growth inhibition (GI): Active
HCT-15
  inhibition of growth at 10 µM: 84.8%
SF-539
  growth inhibition (GI): Active
COLO 205
  growth inhibition (GI): Active
MDA-MB-435
  growth inhibition (GI): Active
